Experimental data: patent US20240110202A1, “Advanced Cell-Permeable Peptide Carriers” (MUSC FOUNDATION FOR RESEARCH DEVELOPMENT, priority 2020, published 2024)
Entries after “also recorded” stand apart in the source; their conditions may differ.

Experiments:
[1] = test system: CIP2A mRNA; assay: Dual peptide siRNA delivery system with GE11R9, CIP2A knockdown; type: cell-based, human; details: CAL 27 cells
[2] = test system: siCIP2A; assay: siRNA release assay (heparin competition); details: 50:1 complexes; for siRNA release compared to 599: 0-10 μg heparin, 30 minutes at RT
Description: Afterwards complexes were incubated with either 0, 0.1, 0.5, 1.0, 2.0, 5.0 or 10 μg heparin (Millipore Sigma, St. Louis, MO) for 30 minutes at RT. The samples were then electrophoresed on a 4% agarose gel and resulting siCIP2A bands were imaged and quantified, as described above.

[3] = test system: RNase A; assay: RNase protection assay; type: biochemical; details: siCIP2A, 50:1, 1 hour at 37° C.
RNase A, sequence (P61823 27-150): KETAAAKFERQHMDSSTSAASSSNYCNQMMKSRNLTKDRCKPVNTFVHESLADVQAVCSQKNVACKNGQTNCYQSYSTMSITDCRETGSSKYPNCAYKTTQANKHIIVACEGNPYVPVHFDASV
Description: Afterwards, complexes were either treated or untreated with 0.18 μg of RNase A (Thermo Fisher Scientific) for 1 hour at 37° C., followed by denaturation with 4% SDS. Next, the samples were electrophoresed on a 4% agarose gel and resulting siCIP2A bands were imaged and quantified, as described above.

[4] = test system: CAL 27 cells; assay: Quantitative siRNA cell uptake assay; type: cell-based, human; details: DY547-siCIP2A, 2 hours post-treatment; for siRNA delivery into cells (internalization) compared to 599: 50:1 Peptide:siRNA molar (12.5 N/P) ratio
Description: CAL 27 cells, grown to a confluency of 60% on a 24-well plate, were rinsed three times with Opti-MEM I Reduced Serum Media (Opti-MEM; Thermo Fisher Scientific). […] After complexation, the total volume was brought to 600 μL with Opti-MEM, after which the cells were incubated with 500 μL of peptide-siCIP2A complexes for 2 hours at 37° C. with 5% CO2. As an additional control, the cells were also transfected with 50 pmol of DY547-siCIP2A using Lipofectamine® 3000 (Thermo Fisher Scientific), according to the manufacturer's instructions. After treatment, the cells were rinsed three times with PBS, before being trypsinized for 10 minutes at 37° C., followed by centrifugation for 5 minutes at 1,000×g at 4° C. The cells were then washed with ice cold phosphate-buffered saline (PBS) and centrifuged again for 5 minutes at 1,000×g at 4° C. Next, the cells were lysed in 250 μl ice cold 0.1 M NaOH. The cell lysates were centrifuged at 4° C. for 5 minutes at 10,000×g to remove cell debris. Afterwards, 100 μL of each sample was transferred to a black 96-well plate to measure fluorescence at 530/590 nm using a BioTek (Winooski, VT) Synergy HT plate reader. Fluorescence measurements were converted to the amount of internalized siRNAs using a standard curve that was generated per experiment using known concentrations of DY547-siCIP2A ranging from 0-100 fmol/μl. Subsequently, the amount of internalized siRNA was normalized to the amount of protein, which was quantitated using the Pierce BCA Protein Assay Kit (Thermo Fisher Scientific).

[5] = Physicochemical measurements (Zetasizer) of peptide-siCIP2A complexes; details: complex with siCIP2A at 50:1 Peptide:siRNA molar (12.5 N/P) ratio in water; for Particle Size: mean hydrodynamic size, dynamic light scattering, ± SD; for Particle Size / Zeta Potential: three experiments; for Zeta Potential: mean ± SD
[6] = Serum protection assay; type: in vitro ADME; details: siCIP2A, 50:1, 50% human serum, 1 hour at 37° C.
Description: Afterwards, complexes were either treated or untreated with 50% human serum (final concentration; VWR, Radnor, PA) for 1 hour at 37° C., followed by denaturation with 4% SDS. Next, the samples were electrophoresed on a 4% agarose gel and resulting siCIP2A bands were imaged and quantified, as described above.

[7] = test system: siCIP2A; assay: siRNA binding assay (gel-shift); details: 10:1 Peptide:siRNA molar ratio
Text: Afterwards, the samples were electrophoresed on a 4% agarose gel and stained with ethidium bromide. Free siCIP2A was used as a normalizing control. An Ultra-Low Range DNA Ladder (Thermo Fisher Scientific, Waltham, MA) was used as a MW marker. Resulting siCIP2A bands were imaged and quantified using a G:Box Chemi XX6 and GeneSys image capture software (Syngene, Frederick, MD), respectively.

[8] = test system: CIP2A mRNA; assay: CIP2A silencing in cells, real-time PCR; type: cell-based, human; details: CAL 27 cells, 50:1, 48 hours
Description: CAL 27 cells, grown to a confluency of 60% on 24-well plates, were rinsed three times with Opti-MEM. […] Afterwards, the complexes were added to the cells at a siRNA concentration of 125 nM and incubated for 4 hours at 37° C. with 5% CO2, prior to adjusting the siRNA and FBS concentrations to 100 nM and 10%, respectively, with the addition of 50% FBS/Opti-MEM media. 48 hours post-treatment, the total RNA or protein was harvested for subsequent real-time PCR and Western blot analyses.
Total RNA was harvested using the RNeasy Mini Kit (Qiagen, Germantown, MD). RNA was then reverse transcribed using the High-Capacity cDNA Reverse Transcription Kit (Thermo Fisher Scientific) in a Bio-Rad (Hercules, CA) T100 Thermal Cycler. Next, quantitative real-time PCR was performed in an Applied Biosystems™ StepOnePlus™ Real-Time PCR machine (Thermo Fisher Scientific) using the TaqMan™ Fast Advanced Master Mix (Thermo Fisher Scientific) and predesigned TaqMan™ Gene Expression Assays (Thermo Fisher Scientific) for CIP2A (Hs00405413_m1) and 18S (4319413E), according to the manufacturer's instructions.

Substance	CIP2A knockdown with GE11R9 as compared to scrambled control peptide GE11SCR9 [1]	siRNA release compared to 599 [2]	complexed siRNAs (maximally) released ([2]; increasing heparin, maximal at 4-fold excess and higher (≥2 μg; ≥120 pmol) of heparin) [%]	ability to protect siRNAs in the presence of RNase A, compared to 599 [3]	siRNA delivery into cells (internalization) compared to 599 [4]	PDI (Polydispersity index) [5]	Particle Size [5] [nm]	Zeta Potential [5] [mV]	ability to protect siRNAs in the presence of serum, compared to 599 [6]	binding improvement relative to 599 [7] [%]	siRNA delivery into cells compared to 599 ([4]; 30:1 Peptide:siRNA molar (7.5 N/P) ratio)	gene silencing in comparison to 599 / among the peptide variants [8]
YHWYGYTPQNVIGGGGRRRRRRRRRK [GE11R9, EGFR-targeting derivative of GE11 peptide with a stretch of densely packed cationic amino acids]	shown to be specific											
GlfeaieGfienGweGmidGwyGGGGrrrrrrrrrk [All-D]		poor siRNA release	~70	did not differ from 599	on average lower siRNA uptake abilities in comparison to 599	0.366	185.9 ± 72.0	28.3 ± 7.7	did not differ from 599			
GlfeaieGfienGweGmidGwyGGGGRRRRRRRRRK [INF7D]		No statistical differences in siRNA release			significantly decreased levels of siRNA cell internalization; also recorded: adversely affect the intracellular delivery of siRNAs; also recorded: on average lower siRNA uptake abilities in comparison to 599; also recorded: poorest siRNA cell uptake	0.296	190.4 ± 94.6	28.2 ± 10.2	greatest instability in serum	~20	dramatic and significant reduction in siRNA delivery into cells	weakest gene silencing effect among the peptide variants
